In the supplement of paper PMC11562712:
Counter-ions that a name gives are not always drawn.

Experiment: first-order primary biodegradation rate constant k (sorption-corrected, fDis-corrected) (d-1); higher = faster biodegradation
Outline: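 Sieved sediment at 50 g wet solid L^–1 was combined with river water from river segments in Germany, Switzerland, Spain and Greece, and 129 compounds were each added at 1 μg L^–1. The mixtures were shaken in the dark for 10 days at river water temperature (20.5 ± 3.5 °C), with three replicates. Filtered water-phase subsamples were analysed by ultra-high-performance liquid chromatography with Orbitrap tandem mass spectrometry. First-order rate constants were obtained by regressing log peak area, correcting for dissipation in azide-sterilised sorption controls and dividing by the dissolved fraction, with invalid fits excluded.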

[1] = river segment: Germany (DE) T_Contam, incubation temperature 24 °C
[2] = river segment: Germany (DE) T_Pris, incubation temperature 24 °C
[3] = river segment: Greece (EL) G_Contam, incubation temperature 19 °C
[4] = river segment: Greece (EL) G_Pris, incubation temperature 19 °C
[5] = river segment: Greece (EL) L_Contam, incubation temperature 19 °C
[6] = river segment: Switzerland (CH) U_Contam, incubation temperature 17 °C
[7] = river segment: Germany (DE) H_Contam, incubation temperature 24 °C
[8] = river segment: Greece (EL) A_Contam, incubation temperature 19 °C
[9] = river segment: Spain (ES) C_Contam, incubation temperature 24 °C
[10] = river segment: Spain (ES) L_Contam, incubation temperature 24 °C
[11] = river segment: Switzerland (CH) C_Contam, incubation temperature 17 °C
[12] = river segment: Switzerland (CH) R_Contam, incubation temperature 17 °C
[13] = river segment: Switzerland (CH) U_Pris, incubation temperature 17 °C
[14] = river segment: Spain (ES) B_Contam, incubation temperature 24 °C
[15] = river segment: Spain (ES) F_Pris_Salt, incubation temperature 24 °C

SMILES	first-order primary biodegradation rate constant k [1]	first-order primary biodegradation rate constant k [2]	first-order primary biodegradation rate constant k [3]	first-order primary biodegradation rate constant k [5]	first-order primary biodegradation rate constant k [6]	first-order primary biodegradation rate constant k [7]	first-order primary biodegradation rate constant k [8]	first-order primary biodegradation rate constant k [11]	first-order primary biodegradation rate constant k [13]	first-order primary biodegradation rate constant k [14]	first-order primary biodegradation rate constant k [15]	first-order primary biodegradation rate constant k [4]	first-order primary biodegradation rate constant k [9]	first-order primary biodegradation rate constant k [10]	first-order primary biodegradation rate constant k [12]
CC(C)(C#N)c1cc(Cn2cncn2)cc(C(C)(C)C#N)c1 [Anastrozole]	0.0241	0.0157	0.658	0.113	0.00582							0.133			
C/C(=N\C#N)N(C)Cc1ccc(Cl)nc1 [Acetamiprid]	0.217	0.0162	0.0201	0.0691	0.106	0.0195	0.097	0.031	0.386			0.125	0.00952	0.0364	0.139
CCOC(=O)CC(O)(CC(=O)OCC)C(=O)OCC [Triethyl citrate]	0.275	0.0369			0.127			0.00672	0.0638					0.339	0.0597
NCC1(CC(=O)O)CCCCC1 [Gabapentin]	0.183				0.0703	0.0147	0.0518		0.15	0.811	0.119	0.0145	0.119	0.235	0.109
CCc1cccc(C)c1N(C(=O)CCl)C(C)COC (stereo not given) [Metolachlor]	0.0409				0.0398			0.0161	0.0285	0.0124			0.0203	0.167	
O=C1Nc2ccc(Cl)cc2C(c2ccccc2)=NC1O (stereo not given) [Oxazepam]	0.0412			0.027	0.0242	0.0405			0.00813				0.124	0.0149	
CC[C@@H](C(N)=O)N1CCCC1=O [Levetiracetam]	0.49	0.0839				0.229	0.382			0.958		0.188	0.236	0.262	0.35
O=[N+]([O-])/N=C1\NCCN1Cc1ccc(Cl)nc1 [Imidacloprid]	0.0495					0.029			0.00932				0.0128		
Cc1cc(C)nc(NS(=O)(=O)c2ccc(N)cc2)n1 [Sulfamethazine]	0.365		0.0667	0.357		0.11	0.0988		0.0819			0.729		0.9	
Nc1nnc(-c2cccc(Cl)c2Cl)c(N)n1 [Lamotrigine]	0.0823		0.337	0.0519								0.0465			
CC1(C(=O)Nc2ccc(O)c(Cl)c2Cl)CCCCC1 [Fenhexamid]	0.656	0.165		0.493		0.151	0.189		0.988		0.0571	0.641	0.109	0.189	0.0432
CN(C)C(=N)NC(=N)N [Metformin]	0.0415	0.0208				0.0281									
CCOc1nc2cccc(C(=O)O)c2n1Cc1ccc(-c2ccccc2-c2nnn[nH]2)cc1 [Candesartan]			0.398				0.00917		0.00966						
CNCCC(Oc1ccc(C(F)(F)F)cc1)c1ccccc1 (stereo not given) [Fluoxetine]		3.25			4.2	0.797		0.0571	2.14						
CN(C)C(=O)Oc1cccc([N+](C)(C)C)c1 [Neostigmine]	0.101				0.486							0.0309			

Second part, led by results:

first-order primary biodegradation rate constant k [1]	first-order primary biodegradation rate constant k [2]	first-order primary biodegradation rate constant k [3]	first-order primary biodegradation rate constant k [5]	first-order primary biodegradation rate constant k [6]	first-order primary biodegradation rate constant k [7]	first-order primary biodegradation rate constant k [8]	first-order primary biodegradation rate constant k [11]	first-order primary biodegradation rate constant k [13]	first-order primary biodegradation rate constant k [14]	first-order primary biodegradation rate constant k [15]	SMILES	first-order primary biodegradation rate constant k [4]	first-order primary biodegradation rate constant k [9]	first-order primary biodegradation rate constant k [10]	first-order primary biodegradation rate constant k [12]
	0.204	1.15		0.0824	0.0512	0.786	0.0347	0.0624	0.121		CCOc1ccccc1OCCN[C@H](C)Cc1ccc(OC)c(S(N)(=O)=O)c1 [Tamsulosin]		0.261	0.41	0.0781
	0.212	0.108	7.88							0.145	CO[C@@H]1[C@@H](OC(N)=O)[C@@H](O)[C@H](Oc2ccc3c(O)c(NC(=O)c4ccc(O)c(CC=C(C)C)c4)c(=O)oc3c2C)OC1(C)C [Novobiocin]				
0.266	0.0301	0.129		0.00879	0.0111	0.501	0.0234	0.0314	0.0427		CCN1CCCC1CNC(=O)c1cc(S(=O)(=O)CC)c(N)cc1OC (stereo not given) [Amisulpride]	0.106		0.00307	
		0.114	0.108	0.0177		0.0419			0.466		CCOC(=O)c1ccc(O)cc1 [Ethylparaben]		2.12	0.364	
0.0815	0.1	0.0602	0.211		0.119	0.106	0.175	0.0832		4.7	COC(=O)c1ccc(O)cc1 [Methylparaben]		0.151		
0.0831	0.00627		0.219	0.139	0.0462	0.327	0.0095	0.282	0.0714		Cc1ccc2n[nH]nc2c1 [5-Methylbenzotriazole]	0.771	0.102	0.219	0.134
0.425	0.199	0.773	0.513	0.596	0.16	0.519	0.22	0.768	0.0362	0.179	C#CCN(C)Cc1ccccc1 [Pargyline]		0.113		0.4
